# Like-named read-outs stand apart in the source and are kept apart here.
# Key:
# mice = assay: Acute Toxicity in mice, oral single dose; type: in vivo, mouse (male); conditions: male mice, 300 mg/kg, p.o., 7 days observation
# From the text: The acute toxicity of the test compounds was studied in male mice after oral administration of a single dose.
# Anesthetized Dogs = assay: Cardiotonic Action: Anesthetized Dogs; type: in vivo, dog (adult mongrel); conditions: for ED50: Canis lupus familiaris, iv, read-out: LVdp/dtmax ED50; for % Changes in Heart rate / % Changes in Blood pressure: i.v.; for % Changes in Blood pressure: femoral arterial pressure
# Experimental: Adult mongrel dogs of either sex weighing 8 to 15 kg were used.
# The animals were anesthetized with sodium pentobarbital (30 mg/kg, i.v.) and maintained by an intravenous infusion of the anesthetic at a rate of 4 mg/kg per hour.
# A cuffed endotracheal tube was inserted and an artificial respirator installed. The animals were ventilated with room air in a tidal volume of 20 ml/kg at a rate of 20 brearhs per minute.
# Cannulae were inserted into the femoral vein for a falling drop of a physiological saline or for an infusion of the anesthetic, and into the femoral artery for measuring arterial blood pressure with a pressure transducer. Heart rate was recorded with a heart rate counter triggered by the R wave of the electrocardiogram (ECG).
# ECG in standard lead II was monitored with a bioelectric amplifier.
# Left ventricular pressure was measured with a catheter tip pressure transducer inserted via the right carotid artery into the left ventricle. Left ventricular dp/dtmax was obtained by an electric differentiator.
# The compounds were injected through the cannula in the femoral vein at a dose of 0.001-0.3 mg/0.1 ml/kg.
# guinea pig left atria = assay: Cardiotonic Action: Electrically Stimulating Isolated Guinea Pig Left Atria; design: species or system guinea pig (male Hartley); conditions: Cavia porcellus, read-out: contractility of guinea pig left atria EC50
# Experimental: Male Hartley guinea pigs weighing 350-500 g were used.
# The hearts were excised from the animals. The left atria were dissected from the hearts and mounted in an organ bath.
# The atria were stimulated by square wave pulses of 3 msec duration and a voltage ranging from 1.2-fold to 1.5-fold of the threshold at a frequency of 60/min with an electric stimulator.
# Resting tension was adjusted to 0.5 g and contraction was recorded on the Polygraph Systems with a force-displacement transducer.
# All preparations were allowed to equilibrate with the bath medium for 90 to 120 min.
# PDE-I = assay: Inhibition of Phosphodiesterase PDE-I; type: biochemical, guinea pig (left ventricular muscles); conditions: 1 mM 3H-cAMP substrate
# From the text: (§1) The preparation of different forms of cyclic nucleotide phosphodiesterase from guinea pig left ventricular muscles was done by following the procedure of Weishaar, et al. (R. Weishaar, et al., Biochemical Pharmacology, 35, 787-800, 1986) with the minor modified method of Thompson, et al. (W. J. Thompson, et al., Advances in Cyclic Nucleotide Research, 10, 69-92, 1979). Briefly, the three active forms of phosphodiesterase (PDE-I, PDE-II, PDE-III) present in the ventricular muscles were discretely eluted from a DEAE-cellulose column (Whatman, DE-52, .phi. 2.5×20 cm) using a continuous 70-800 mM sodium acetate gradient.
# (§2) The phosphodiesterase activity was assayed by minor modifications of the method described by Furutani et al. (Y. Furutani, et al., Journal of Antibiotics, 28, 558-560, 1975). Briefly, 1 mM ^3 H-cAMP was hydrolyzed by the phosphodiesterase and the unhydrolyzed ^3 H-cAMP which was separated from the formed 5'-AMP by a dry alumina (Merck, activity 1, neutral) was counted by a liquid scintillation counter.
# (§3) The concentrations causing a 50% inhibition of the phosphodiesterase activity (IC50) were calculated from the concentration-inhibition curves.
# PDE-III = target: T1, PDE-III (Cavia porcellus, UniProt H0VIU9); assay: Inhibition of Phosphodiesterase PDE-III; type: biochemical, guinea pig (left ventricular muscles)
# T1 construct: different forms of cyclic nucleotide phosphodiesterase from guinea pig left ventricular muscles; from tissue; host or cells: guinea pig left ventricular muscle, DEAE-cellulose fraction
# T1 sequence (H0VIU9 1-1132): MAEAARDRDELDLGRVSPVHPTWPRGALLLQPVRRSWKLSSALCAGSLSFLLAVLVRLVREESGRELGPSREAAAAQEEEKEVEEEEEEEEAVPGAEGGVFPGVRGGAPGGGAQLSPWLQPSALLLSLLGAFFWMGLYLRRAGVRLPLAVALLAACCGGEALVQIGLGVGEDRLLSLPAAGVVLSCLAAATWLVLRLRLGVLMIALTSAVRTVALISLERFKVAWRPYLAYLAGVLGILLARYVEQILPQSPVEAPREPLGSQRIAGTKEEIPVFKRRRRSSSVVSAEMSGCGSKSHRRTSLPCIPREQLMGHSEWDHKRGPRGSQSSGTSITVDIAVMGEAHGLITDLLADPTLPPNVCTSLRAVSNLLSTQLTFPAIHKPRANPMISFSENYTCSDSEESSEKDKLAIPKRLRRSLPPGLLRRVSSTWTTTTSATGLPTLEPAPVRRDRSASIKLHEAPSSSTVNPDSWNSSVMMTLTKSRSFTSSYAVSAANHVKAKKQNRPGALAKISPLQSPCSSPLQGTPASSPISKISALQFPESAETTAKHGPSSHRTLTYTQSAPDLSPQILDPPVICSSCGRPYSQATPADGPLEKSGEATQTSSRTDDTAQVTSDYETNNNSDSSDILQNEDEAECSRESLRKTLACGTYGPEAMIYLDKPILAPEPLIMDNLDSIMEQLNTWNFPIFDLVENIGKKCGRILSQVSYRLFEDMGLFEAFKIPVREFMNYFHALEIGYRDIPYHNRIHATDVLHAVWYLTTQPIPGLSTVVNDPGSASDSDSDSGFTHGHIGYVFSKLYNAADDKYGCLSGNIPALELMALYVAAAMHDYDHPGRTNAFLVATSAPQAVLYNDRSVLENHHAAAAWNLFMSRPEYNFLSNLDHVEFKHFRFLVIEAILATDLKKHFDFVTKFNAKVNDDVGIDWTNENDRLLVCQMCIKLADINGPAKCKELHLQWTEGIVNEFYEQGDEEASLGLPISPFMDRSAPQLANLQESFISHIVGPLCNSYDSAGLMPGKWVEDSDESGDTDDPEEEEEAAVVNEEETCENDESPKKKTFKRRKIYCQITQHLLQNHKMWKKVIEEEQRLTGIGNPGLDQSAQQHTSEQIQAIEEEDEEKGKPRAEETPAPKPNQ
# From the text: as §1, §2, §3
# PDE-II = target: T2, PDE-II (Cavia porcellus, UniProt A0A286XUV5); assay: Inhibition of Phosphodiesterase PDE-II; type: biochemical, guinea pig (left ventricular muscles); conditions: 1 mM 3H-cAMP substrate
# T2 construct: different forms of cyclic nucleotide phosphodiesterase from guinea pig left ventricular muscles; from tissue; host or cells: guinea pig left ventricular muscle, DEAE-cellulose fraction
# T2 sequence (A0A286XUV5 22-936): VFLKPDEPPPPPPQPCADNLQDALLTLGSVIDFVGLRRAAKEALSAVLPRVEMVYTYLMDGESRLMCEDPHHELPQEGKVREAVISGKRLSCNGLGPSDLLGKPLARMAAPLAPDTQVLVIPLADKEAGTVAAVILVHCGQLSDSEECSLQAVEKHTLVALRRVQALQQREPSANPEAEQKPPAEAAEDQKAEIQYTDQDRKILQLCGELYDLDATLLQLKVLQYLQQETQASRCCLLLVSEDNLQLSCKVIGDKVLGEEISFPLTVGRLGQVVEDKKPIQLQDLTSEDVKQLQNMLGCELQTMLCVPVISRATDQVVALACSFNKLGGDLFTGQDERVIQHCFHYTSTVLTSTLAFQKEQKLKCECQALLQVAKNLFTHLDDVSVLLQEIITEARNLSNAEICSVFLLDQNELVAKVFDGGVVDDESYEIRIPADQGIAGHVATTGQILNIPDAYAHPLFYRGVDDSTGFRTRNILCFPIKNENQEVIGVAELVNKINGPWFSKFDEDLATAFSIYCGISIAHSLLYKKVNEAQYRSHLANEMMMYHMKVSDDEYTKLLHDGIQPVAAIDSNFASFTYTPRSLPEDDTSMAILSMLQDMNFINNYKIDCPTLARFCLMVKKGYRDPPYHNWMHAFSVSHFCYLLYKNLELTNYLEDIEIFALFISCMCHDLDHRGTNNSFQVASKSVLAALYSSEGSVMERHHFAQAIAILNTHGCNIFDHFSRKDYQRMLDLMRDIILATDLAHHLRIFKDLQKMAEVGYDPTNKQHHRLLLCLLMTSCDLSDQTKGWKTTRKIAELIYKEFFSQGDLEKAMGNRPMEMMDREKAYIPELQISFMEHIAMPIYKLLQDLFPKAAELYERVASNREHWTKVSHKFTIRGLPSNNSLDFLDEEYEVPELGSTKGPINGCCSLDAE
# From the text: as §1, §2, §3
# [1] = dose producing a 50% increase in LVdp/dtmax, anesthetized dogs
# [2] = concentration causing a 50% increase in contractility, cumulative addition, 30° C.
# [3] = 1 mM 3H-cAMP substrate, read-out: phosphodiesterase inhibition IC50 PDE-III
SMILES,mortality (number of dead animals/number of treated animals) (mice),ED50 (Anesthetized Dogs; [1]) [mg/kg],% Changes in Heart rate (Anesthetized Dogs; anesthetized dogs) [%],% Changes in Blood pressure (Anesthetized Dogs; anesthetized dogs) [%],EC50 (guinea pig left atria; [2]) [µg/mL],IC50 (PDE-I) [µM],IC50 (PDE-III; [3]) [µM],IC50 (PDE-II) [µM],ED50 (Anesthetized Dogs) [mg/kg],EC50 (guinea pig left atria) [µg/mL],IC50 (PDE-III) [µM]
"O=C1CCC(c2ccc(-n3ccnc3)cc2)=NN1 [CI-914, reference compound]",2/3,0.095,9,-10,1.8,> 1000,5.7,–,–,–,–
CC1(C)CC(=O)C=C(Nc2ccc(C3=NNC(=O)CC3)cc2)C1 [Compound 1],0/3,0.043,5,-1,0.23,900,1.2,250,–,–,–
"O=C1C=C(Nc2ccc(C3=NNC(=O)CC3)cc2)CC1 [Compound 2, 4,5-Dihydro-6-((4-(3-oxo-1-cyclopentenyl)amino)phenyl)-3(2H)-pyridazinone]",0/3,0.006,6,-2,0.11,1000,1.2,235,–,–,–
O=C1C=C(Nc2ccc(C3=NNC(=O)CC3)cc2)CCC1 [Compound 3],0/3,0.009,2,-4,0.23,210,0.47,180,–,–,–
"CC1=C(Nc2ccc(C3=NNC(=O)CC3)cc2)CCC1=O [Compound 4, 4,5-Dihydro-6-(4-((2-methyl-3-oxo-1-cyclopentenyl)-amino)phenyl)-3(2H)-pyridazinone]",1/3,0.012,5,-2,0.24,610,2,330,–,–,–
"CC1CC(=O)NN=C1c1ccc(NC2=CC(=O)CC2)cc1 (stereo not shown) [Compound 14, 4,5-Dihydro-6-(4-((3-oxo-1-cyclopentenyl)amino)phenyl)-5-methyl-3(2H)-pyridazinone]",–,0.008,13,-11,0.12,310,0.88,260,–,–,–
"CC1=C(Nc2ccc(C3=NNC(=O)CC3C)cc2)CCC1=O (stereo not shown) [Compound 15, 4,5-Dihydro-6-(4-((2-methyl-3-oxo-1-cyclopentenyl)amino)phenyl)-5-methyl-3(2H)-pyridazinone]",–,0.012,19,-18,0.054,> 1000,0.59,940,–,–,–
"O=C1C=C(Nc2ccc3c(c2)OCC2CC(=O)NN=C32)CC1 (stereo not shown) [Compound 24, 8-(3-oxo-1-cyclopentenylamino)-3,4,4a,5-tetrahydro-2H-(1)benzopyrano(4,3-c)-pyridazinon-3-one]",–,0.022,4,-7,–,> 100,4.1,100,–,–,–
CC1=C(Nc2ccc3c(c2)OCC2CC(=O)NN=C32)CCC1=O (stereo not shown) [Compound 26],–,0.03,8,-6,–,> 1000,2.3,100,–,–,–
O=C1C=C(Nc2ccc3c(c2)CCC2CC(=O)NN=C32)CC1 (stereo not shown) [Compound 35],–,0.023,3,-4,–,> 100,1.6,49,–,–,–
"Cc1[nH]c(=O)c(C#N)cc1-c1ccncc1 [Milrinone, milrinone, reference compound]",3/3,–,6,-6,–,151,–,142,0.023,0.43,2.8

# — patent publication US5110925A, “Pyridazinone derivatives” (Nippon Soda Co., Ltd., priority 1988, dated 1992)
